In the supplement of paper PMC11061612:

Assays:
Assay in all cases: combination Emax (second highest fraction inhibited in the dose matrix, 72 h); higher = more inhibition; extreme values may be limits of the assay
[1] = test system: P12-ICHIKAWA (T-Lymphoblastic Leukemia)
Summary of the method: (§1)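 After 24 hours at 37°C and 5% CO2 in 1536-well plates, cells in DMEM/F12 or RPMI plus 10% FBS received two-drug dose matrices for 72 hours. Viability came from CellTiter-Glo 2.0 luminescence and was scaled as inhibition, anchored at 0 by vehicle wells and at 1 by blank wells. Combination Emax is taken as the second-highest inhibition in the matrix, and Bliss excess as the observed combination effect less EA + EB − EA·EB, with EA and EB the single-agent effects.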

[2] = test system: KYSE-180 (Esophageal Squamous Cell Carcinoma)
Summary of the method: as §1

CHP-212 (Neuroblastoma) = test system: CHP-212 (Neuroblastoma)
Summary of the method: as §1

WIL2-NS (Non-Cancerous) = test system: WIL2-NS (Non-Cancerous)
Summary of the method: as §1

[3] = test system: MKN28 (Gastric Carcinoma)
Summary of the method: as §1

[4] = test system: KCL-22 (Chronic Myelogenous Leukemia)
Summary of the method: as §1

NCI-H2818 (Mesothelioma) = test system: NCI-H2818 (Mesothelioma)
Summary of the method: as §1

[5] = test system: HDQ-P1 (Breast Carcinoma)
Summary of the method: as §1

WM-115 (Melanoma) = test system: WM-115 (Melanoma)
Summary of the method: as §1

[6] = test system: BL-41 (Burkitt's Lymphoma)
Summary of the method: as §1

[7] = test system: DND-41 (T-Lymphoblastic Leukemia)
Summary of the method: as §1

[8] = test system: NCI-H1792 (Lung Adenocarcinoma)
Summary of the method: as §1

[9] = test system: K-562 (Chronic Myelogenous Leukemia)
Summary of the method: as §1

[10] = test system: KM12 (Colorectal Carcinoma)
Summary of the method: as §1

[11] = test system: PANC-08-13 (Pancreatic Carcinoma)
Summary of the method: as §1

[12] = test system: CAMA-1 (Breast Carcinoma)
Summary of the method: as §1

[13] = test system: COLO-678 (Colorectal Carcinoma)
Summary of the method: as §1

[14] = test system: BFTC-905 (Bladder Carcinoma)
Summary of the method: as §1

U251 (Low Grade Glioma) = test system: U251 (Low Grade Glioma)
Summary of the method: as §1

[15] = test system: EVSA-T (Breast Carcinoma)
Summary of the method: as §1

Structure (SMILES)	combination Emax [1]	combination Emax [2]	combination Emax (CHP-212 (Neuroblastoma))	combination Emax (WIL2-NS (Non-Cancerous))	combination Emax [3]	combination Emax [4]	combination Emax (NCI-H2818 (Mesothelioma))	combination Emax [5]	combination Emax (WM-115 (Melanoma))	combination Emax [6]	combination Emax [7]	combination Emax [8]	combination Emax [9]	combination Emax [10]	combination Emax [11]	combination Emax [12]	combination Emax [13]	combination Emax [14]	combination Emax (U251 (Low Grade Glioma))	combination Emax [15]
CC1(C)CCC(CN2CCN(c3ccc(C(=O)NS(=O)(=O)c4ccc(NCC5CCOCC5)c([N+](=O)[O-])c4)c(Oc4cnc5[nH]ccc5c4)c3)CC2)=C(c2ccc(Cl)cc2)C1 [Venetoclax] + Cc1cc2ncnn2cc1Nc1ncc2c(n1)n(C1CCOCC1)c(=O)n2C [AZD7648] (first compound max 1 µM, 7x7, partner max 10 µM)	0.298	0.142	0.314	0.77	0.229	0.159	0.352	0.189	0.238	0.17	0.885	0.397	0.339	0.21	0.218	0.228	0.16	0.207	0.202	0.305
CN(CCO)CC[C@H](CSc1ccccc1)Nc1ccc(S(=O)(=O)NC(=O)c2ccc(N3CCC([C@@H](O)c4ccccc4-c4ccc(Cl)cc4)CC3)cc2)cc1S(=O)(=O)C(F)(F)F [AZD4320] + CCN(CCO)CCCOc1ccc2c(Nc3cc(CC(=O)Nc4cccc(F)c4)[nH]n3)ncnc2c1 [AZD2811] (first compound max 1 µM, 7x7, partner max 1 µM)	1	0.181	0.758	0.311	0.184	0.556	0.191	0.849	0.453	0.723	1	0.113	0.333	0.173	0.422	0.616	0.456	0.856	0.42	0.704
COc1nnc2ccc(N3CCC(c4ccc(OCCN5CCN(C)C(=O)[C@H]5C)cc4)CC3)nn12 [AZD5153] + C=CCn1c(=O)c2cnc(Nc3ccc(N4CCN(C)CC4)cc3)nc2n1-c1cccc(C(C)(C)O)n1 [AZD1775] (first compound max 1 µM, partner max 1 µM)	1	0.742	0.958	0.878	0.525	0.927	0.327	0.523	0.338	1	0.941	0.83	0.616	0.853	0.679	0.453	0.531	0.63	0.799	0.942
CC(=O)Nc1cccc(-n2c(=O)n(C3CC3)c(=O)c3c(Nc4ccc(I)cc4F)n(C)c(=O)c(C)c32)c1 [Trametinib] + Cc1nc(-c2cn3c(n2)-c2ccc(-c4cnn(C(C)(C)C(N)=O)c4)cc2OCC3)n(C(C)C)n1 [Taselisib] (first compound max 1 µM, 7x7, partner max 10 µM)	0.658	0.638	1	0.723	0.708	0.801	0.428	0.915	0.951	0.319	0.369	1	0.495	0.84	0.655	0.491	0.608	1	0.848	0.947
C[C@@H](c1ccc2nccn2c1)n1nnc2ncc(-c3cnn(C)c3)nc21 [Savolitinib] + Cc1c2c(nn1C)CSCc1cc(n(C)n1)CSc1cc(c3ccccc3c1)OCCCc1c(C(=O)O)n(C)c3c-2c(Cl)ccc13 [AZD5991] (first compound max 1 µM, 7x7, partner max 1 µM)	0.29	0.278	0.787	0.0914	0.0861	0.289	0.16	0.2	0.185	1	0.172	0.214	0.159	0.159	0.146	0.494	0.161	0.191	0.217	1
Cn1cnc2c(F)c(Nc3ccc(Br)cc3Cl)c(C(=O)NOCCO)cc21 [Selumetinib] + C=CCn1c(=O)c2cnc(Nc3ccc(N4CCN(C)CC4)cc3)nc2n1-c1cccc(C(C)(C)O)n1 [AZD1775] (first compound max 10 µM, partner max 1 µM)	1	0.544	0.978	0.937	0.276	0.943	0.303	0.673	0.402	1	0.898	0.632	0.834	0.884	0.305	0.148	0.52	0.665	0.326	0.156
NC1(C(=O)N[C@@H](CCO)c2ccc(Cl)cc2)CCN(c2ncnc3[nH]ccc23)CC1 [Capivasertib] + C[C@@H]1COCCN1C2=NC(=NC(=C2)C3(CC3)[S@](=N)(=O)C)C4=C5C=CNC5=NC=C4 [AZD6738] (first compound max 10 µM, 7x7, partner max 10 µM)	1	0.554	0.829	0.919	0.296	0.979	0.437	0.422	0.628	0.981	0.886	0.767	0.866	0.91	0.478	0.684	0.237	0.623	0.444	0.959
Cc1c2c(nn1C)CSCc1cc(n(C)n1)CSc1cc(c3ccccc3c1)OCCCc1c(C(=O)O)n(C)c3c-2c(Cl)ccc13 [AZD5991] + C[C@@H](Nc1cc(F)cc(F)c1)c1cc(C(=O)N(C)C)cc2c(=O)cc(N3CCOCC3)oc12 [AZD8186] (first compound max 1 µM, 7x7, partner max 3 µM)	0.964	0.877	0.882	0.337	0.232	0.87	0.387	0.237	0.656	1	0.0838	0.441	0.389	0.205	0.263	0.98	0.278	0.289	0.226	1
CC1(C)CCC(CN2CCN(c3ccc(C(=O)NS(=O)(=O)c4ccc(NCC5CCOCC5)c([N+](=O)[O-])c4)c(Oc4cnc5[nH]ccc5c4)c3)CC2)=C(c2ccc(Cl)cc2)C1 [Venetoclax] + C1CN(CCC1(C(=O)N[C@@H](CCO)C2=CC=C(C=C2)Cl)N)C3=NC=NC4=C3C=CN4 [Capivasertib] (first compound max 1 µM, 7x7, partner max 3 µM)	0.49	0.312	0.152	0.912	0.255	0.183	0.175	0.205	0.397	0.252	0.921	0.223	0.369	0.501	0.189	0.63	0.0815	0.193	0.303	0.855
CN(CCO)CC[C@H](CSc1ccccc1)Nc1ccc(S(=O)(=O)NC(=O)c2ccc(N3CCC([C@@H](O)c4ccccc4-c4ccc(Cl)cc4)CC3)cc2)cc1S(=O)(=O)C(F)(F)F [AZD4320] + C=CCn1c(=O)c2cnc(Nc3ccc(N4CCN(C)CC4)cc3)nc2n1-c1cccc(C(C)(C)O)n1 [AZD1775] (first compound max 1 µM, partner max 1 µM)	1	0.783	0.809	0.973	0.536	0.937	0.371	0.911	0.507	1	1	0.696	0.871	0.881	0.492	0.182	0.367	0.759	0.289	0.191
CC1(C)CCC(CN2CCN(c3ccc(C(=O)NS(=O)(=O)c4ccc(NCC5CCOCC5)c([N+](=O)[O-])c4)c(Oc4cnc5[nH]ccc5c4)c3)CC2)=C(c2ccc(Cl)cc2)C1 [Venetoclax] + C[C@@H]1COCCN1C2=NC(=NC(=C2)C3(CC3)[S@](=N)(=O)C)C4=C5C=CNC5=NC=C4 [AZD6738] (first compound max 1 µM, 7x7, partner max 10 µM)	0.986	0.638	0.792	0.997	0.488	0.951	0.394	0.399	0.524	0.999	0.987	0.725	0.788	0.641	0.421	0.41	0.164	0.835	0.518	0.378
CC1(C)CCC(CN2CCN(c3ccc(C(=O)NS(=O)(=O)c4ccc(NCC5CCOCC5)c([N+](=O)[O-])c4)c(Oc4cnc5[nH]ccc5c4)c3)CC2)=C(c2ccc(Cl)cc2)C1 [Venetoclax] + C[C@@H](Nc1cc(F)cc(F)c1)c1cc(C(=O)N(C)C)cc2c(=O)cc(N3CCOCC3)oc12 [AZD8186] (first compound max 1 µM, 7x7, partner max 3 µM)	0.0737	0.107	0.314	0.772	0.115	0.299	0.129	0.211	0.447	0.257	0.921	0.109	0.347	0.0675	0.184	0.434	0.119	0.108	0.0464	0.79
